Laboratory results: patent publication US20110014164A1, “EFFICIENT INDUCTION OF PLURIPOTENT STEM CELLS USING SMALL MOLECULE COMPOUNDS” (PRESIDENT AND FELLOWS OF HARVARD COLLEGE, priority 2008, published 2011)

Key:
Assay type in all cases: cell-based, mouse
uninfected MEFs [1] = test: Microarray analysis on uninfected MEFs treated with VPA
Excerpt: (a) Genes that were specifically expressed in ES cells and MEFs (>10 fold difference) were selected, and scatter plot was generated to visualize the effect of VPA treatment on the expression of these genes. Each blue dots represent one gene, and the position of the blue dot indicate the relative expression level, the average signal (AVE_signal), in MEFs treated with VPA versus untreated. The thick red line indicates identical expression levels. The two adjacent red lines indicate positions where VPA treatment causes a two fold up or down-regulation of the gene expression.
(b) Examples of the relative levels of expression of ES cell-specific transcripts (Rex3 and Zfp7) in ES cells, iPS-m cells, untreated MEFs and MEFs treated with VPA.
(c) Examples of the relative levels of expression of MEF-specific transcripts (Aspn and Meox2) in ES cells, iPS-m cells, untreated MEFs and MEFs treated with VPA.
(§1) Therefore, VPA partially reprograms MEFs towards more ES cell-like.
For transcriptional analysis, total RNA was isolated from cells cultured in 6 well dishes using RNeasy Mini Kit and QlAshredder from Qiagen. Biotinylated antisense RNA were amplified using Illumina Total Prep RNA amplification Kit from Ambion, hybridized to Illumina Whole-Genome Expression BeadChips (MouseRef-8) and analyzed by Illumina Beadstation 500. All samples were prepared in two to three biological repeats. Data were analyzed using the Beadstudio software provided by Illumina.

[2] = system: MEFs infected with the four factors (Oct4, Sox2, Klf4 and c-Myc); test: cells; details: Mus musculus; 4-factor infected MEFs; dose response; read-out: EC50 of reprogramming efficiency (percentage of Oct4-GFP positive cells induced)
[3] = system: MEFs infected with the four factors (Oct4, Sox2, Klf4 and c-Myc); details: 2 mM; 4-factor infected MEFs
Method: FIG. 1(a) MEFs infected with the four factors (Oct4, Sox2, Klf4 and c-Myc) were treated with various chemicals for a week, the percentage of Oct4-GFP positive cells induced was measured through FACS analysis, and compared to infected MEFs without treatment or treated with DMSO (the solvent for Dexamethasone, SAHA and TSA). The chemicals used were: 5′-azaC (2 μM), dexamethasone (dex, 1 μM), 5′-azaC (2 μM) together with dexamethasone (1 μM), VPA (2 mM), SAHA (5 μM) and TSA (20 nM). n=4 for each treatment. For all figures in this study, standard deviations are indicated by error bars, and P values by two-tailed student t-test less than 0.05, 0.01 and 0.001 are indicated by one, two and three asterisks respectively.
To quantitate reprogramming efficiency, we established an assay based on Fluorescence-Activated Cell Sorting (FACS) analysis using an Oct4-GFP transgenic reporter, where the expression of the green fluorescent protein (GFP) is controlled by the promoter and enhancers of Oct4, a pluripotent marker gene^14.
MEFs were derived from e13.5 embryos hemizygous for the Oct4-GFP transgenic allele. Embryos were sexed by inspecting gonads for the pattern of Oct4-GFP expression. Gonads and internal organs were removed before processing the embryos for MEF isolation. To generate iPS cells that can be identified in mouse chimeras after blastocyst injection, we derived MEFs from e13.5 embryos that are hemizygous for Oct4-GFP and heterozygous for the Rosa26-lacZ reporter allele. MEFs were grown in DMEM supplemented with 10% FBS, L-glutamine, penicillin/streptoMycin, nonessential amino acids, and sodium pyruvate. MEFs in early passages (up to passage 5) were used for generation of iPS cells.
Moloney-based retroviral vector (pMXs) containing the murine complementary DNAs of Oct4, Sox2, c-Myc, and Klf4 were obtained from Addgene^1. These plasmids were co-transfected into 293T cells with packaging vectors (pUMVC and pCMV-VSVG), and viral supernatants were collected 48 hours post-transfection to infect MEFs. Two to three rounds of infection were performed during a 48 hour period. The first day after viral supernatants were removed was defined as 0 day post-infection. Infected MEFs were subsequently cultured in mouse ES cell media (Knockout DMEM supplemented with 15% Hyclone FBS, L-glutamine, penicillin/streptoMycin, nonessential amino acids, β-mercaptoethanol, and with 1000 U/ml LIF), and treated with small molecules or growth factors for a week starting from 1 or 2 days post-infection. […] All conditions were tested in quadruplicates.

uninfected MEFs [4] = test: Oct4-GFP induction in uninfected MEFs; details: VPA treatment alone on uninfected MEFs
Excerpt: as §1

[5] = system: MEFs infected with Oct4, Sox2 and Klf4; test: GFP positive iPS colony number in 3-factor infected MEFs
Excerpt: FIG. 2(c) Representative pictures at 16 days post-infection showing a significant increase of GFP positive iPS colonies in 3-factor infected MEFs with VPA treatment compared to non-treated control.
Retroviral introduction of c-Myc could cause tumorigenecity in cells derived from the iPS cells thus generated^2. […] Similar low efficiency was also reported for induction of iPS cells from mouse fibroblasts without c-Myc^24. We tested whether treating the cells with 5′-azaC or VPA improves the efficiency of iPS colony formation without the need for c-Myc. MEFs were first infected with Oct4, Sox2 and Klf4, then treated with 5′-azaC or VPA for a week starting 1 day post-infection. […] Consistent with the FACS data, a 30-40 fold increase of GFP positive colonies was observed compared to control MEFs without treatment (FIG. 2c). This allowed for picking of iPS colonies within two weeks post-infection, sooner than the typical ˜30 days post-infection or later without chemical treatment^13, 24.
For the generation of mouse iPS cells, infected MEFs were cultured in mouse ES cell media until iPS colonies were ready to be picked. In some experiments, knockout serum replacement was used instead of the Hyclone FBS in the mouse ES cell media, which appeared to accelerate the reprogramming process, consistent with a recent report^26. […]

iPS-m cell lines = test: Karyotype (chromosome) analysis of iPS-m cell lines induced by VPA treatment
Excerpt: Supplementary FIG. 4. Chromosome analysis of iPS-m cells. […] Shown here is a representative chromosome analysis image from iPS-m84.
as §1

[6] = uninfected MEFs, 2 mM VPA for a week

CCCC(CCC)C(=O)O [VPA, valproic acid]
expression of ES cell-specific genes Rex3 and Zfp7 (uninfected MEFs [1]; MEFs treated with VPA versus untreated MEFs): up-regulated by more than twenty fold | expression of MEF-specific genes Aspn and Meox2 (uninfected MEFs [1]; VPA treated MEFs versus untreated MEFs): down-regulated by more than twenty fold | effect on endogenous c-Myc gene expression (uninfected MEFs [1]; [6]): did not have a significant effect | share of the 214 genes down-regulated >10 fold in ES cells that are down-regulated by more than two fold (uninfected MEFs [1]; [6]): 55% | share of the 214 genes down-regulated >10 fold in ES cells that are up-regulated by more than two fold (uninfected MEFs [1]; [6]): 6.2% | share of the 968 genes up-regulated >ten fold in ES cells that are down-regulated by more than two fold (uninfected MEFs [1]; [6]): 4.5% | share of the 968 genes up-regulated >ten fold in ES cells that are up-regulated by more than two fold (uninfected MEFs [1]; [6]): 66% | EC50 [2]: 1900 µM | improvement over the non-treated control [3]: more than 100 fold | induction of Oct4-GFP positive cells (uninfected MEFs [4]): does not induce Oct4-GFP positive cells | increase of GFP positive colonies compared to control MEFs without treatment [5]: 30-40 fold | iPS-m cell lines with normal karyotypes (iPS-m cell lines; iPS-m81, 82, 83 and 84 induced by VPA treatment): Three out of four | genetic changes at the level of chromosomal abnormalities (iPS-m cell lines; iPS-m cell lines induced with VPA (Table 1)): Nor does VPA treatment cause detectable genetic changes
